The values that follow come from patent US20040152747A1, “Thiazole compounds for treatment of neurodegenerative disorders” (Pfizer Inc, priority 2002, published 2004).

pIC50: −log10 of the molar value.

As a reminder, the pIC50 is the negative decadic logarithm of the IC50, by convention in mol/L.

The test system of this assay is gamma-secretase. The experiment in a line: gamma-secretase activity in a solubilized membrane preparation (cell-free assay, McLendon et al.). Type of assay: biochemical. The following applies: read-out: IC50 activity for inhibiting gamma-secretase activity. The protocol:
The activity of compounds of the invention in inhibiting gamma-secretase activity was determined in a solubilized membrane preparation generally according to the description provided in McLendon et al. Cell-free assays for γ-secretase activity, The FASEB Journal (Vol. 14, December 2000, pp. 2383-2386).

For `CCC(NC(=O)Cc1cc(F)cc(F)c1)C(=O)Nc1ncc(-c2ccc(Br)s2)s1` (stereo not shown) [Example 11, N-[5-(5-bromo-thiophen-2-yl)-thiazol-2-yl]-2-[2-(3,5-difluoro-phenyl)-acetylamino]-butyramide], the pIC50 was roughly 5.30.
